This is an account of results in ChEMBL document CHEMBL5325439, “Application of an "inhalation by design" approach to the identification and in-vitro evaluation of novel purine based PI3Kδ inhibitors” (Eur J Med Chem, 2023).

Structures are written as SMILES. In brackets after ≈: the same amount, converted by molar mass. Activity calls are given as the source filed them. No cut-off for these calls is given here.

Series [1] is described as follows: Kinetic solubility of compound in PBS at pH 7.4 by HPLC analysis. The series is classed as physicochemical. The note with it: for Kinetic_solubility: buffer; for solubility kinetic: PBS, read-out: Kinetic_solubility.
Series [2] addresses T1, Phosphatidylinositol 4,5-bisphosphate 3-kinase catalytic subunit delta isoform (Homo sapiens, UniProt O00329).
T1 sequence (O00329 whole entry): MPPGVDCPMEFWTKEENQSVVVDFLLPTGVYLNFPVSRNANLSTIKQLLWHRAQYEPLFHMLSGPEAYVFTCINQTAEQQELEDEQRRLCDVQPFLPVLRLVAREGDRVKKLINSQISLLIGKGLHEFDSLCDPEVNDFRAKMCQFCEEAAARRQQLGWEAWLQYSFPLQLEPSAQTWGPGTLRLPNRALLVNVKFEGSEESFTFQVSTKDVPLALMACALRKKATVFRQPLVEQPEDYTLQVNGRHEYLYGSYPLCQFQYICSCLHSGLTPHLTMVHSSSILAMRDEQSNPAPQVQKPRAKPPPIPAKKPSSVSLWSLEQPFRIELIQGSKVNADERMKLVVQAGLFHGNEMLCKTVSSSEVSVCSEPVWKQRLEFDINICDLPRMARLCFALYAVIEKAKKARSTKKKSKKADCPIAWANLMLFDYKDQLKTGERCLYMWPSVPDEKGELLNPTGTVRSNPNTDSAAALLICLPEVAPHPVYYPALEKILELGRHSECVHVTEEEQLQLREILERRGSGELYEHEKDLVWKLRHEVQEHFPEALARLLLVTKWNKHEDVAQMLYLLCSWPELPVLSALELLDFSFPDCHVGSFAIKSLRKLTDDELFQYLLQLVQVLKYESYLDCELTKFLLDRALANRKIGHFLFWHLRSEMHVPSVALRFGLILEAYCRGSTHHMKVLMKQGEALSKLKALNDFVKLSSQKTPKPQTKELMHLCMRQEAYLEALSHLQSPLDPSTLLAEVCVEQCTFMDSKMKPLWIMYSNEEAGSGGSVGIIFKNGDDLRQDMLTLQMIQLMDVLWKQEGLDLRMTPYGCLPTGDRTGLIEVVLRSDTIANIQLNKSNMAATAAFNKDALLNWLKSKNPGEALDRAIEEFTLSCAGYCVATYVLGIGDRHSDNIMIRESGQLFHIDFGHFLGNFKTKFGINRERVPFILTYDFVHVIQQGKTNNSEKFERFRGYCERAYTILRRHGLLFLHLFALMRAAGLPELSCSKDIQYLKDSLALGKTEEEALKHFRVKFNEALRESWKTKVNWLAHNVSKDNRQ
The experiment in a line: Inhibition of recombinant human PI3Kdelta using l-a-phosphatidylinositol sodium salt and l-a-phosphatidyl-L-serine as substrate incubated for 60 mins in presence of ATP by ADP-glo kinase assay. On the technique in general: ADP-Glo turns the ADP formed in a reaction into a luminescent signal.

Series [3] deals with Phosphatidylinositol 4,5-bisphosphate 3-kinase catalytic subunit gamma isoform (Homo sapiens, UniProt P48736). The series is described as follows: Inhibition of recombinant human PI3Kgamma using l-a-phosphatidylinositol sodium salt and l-a-phosphatidyl-L-serine as substrate incubated for 60 mins in presence of ATP by ADP-glo kinase assay.
Chain of Phosphatidylinositol 4,5-bisphosphate 3-kinase catalytic subunit gamma isoform (P48736 whole entry, canonical isoform): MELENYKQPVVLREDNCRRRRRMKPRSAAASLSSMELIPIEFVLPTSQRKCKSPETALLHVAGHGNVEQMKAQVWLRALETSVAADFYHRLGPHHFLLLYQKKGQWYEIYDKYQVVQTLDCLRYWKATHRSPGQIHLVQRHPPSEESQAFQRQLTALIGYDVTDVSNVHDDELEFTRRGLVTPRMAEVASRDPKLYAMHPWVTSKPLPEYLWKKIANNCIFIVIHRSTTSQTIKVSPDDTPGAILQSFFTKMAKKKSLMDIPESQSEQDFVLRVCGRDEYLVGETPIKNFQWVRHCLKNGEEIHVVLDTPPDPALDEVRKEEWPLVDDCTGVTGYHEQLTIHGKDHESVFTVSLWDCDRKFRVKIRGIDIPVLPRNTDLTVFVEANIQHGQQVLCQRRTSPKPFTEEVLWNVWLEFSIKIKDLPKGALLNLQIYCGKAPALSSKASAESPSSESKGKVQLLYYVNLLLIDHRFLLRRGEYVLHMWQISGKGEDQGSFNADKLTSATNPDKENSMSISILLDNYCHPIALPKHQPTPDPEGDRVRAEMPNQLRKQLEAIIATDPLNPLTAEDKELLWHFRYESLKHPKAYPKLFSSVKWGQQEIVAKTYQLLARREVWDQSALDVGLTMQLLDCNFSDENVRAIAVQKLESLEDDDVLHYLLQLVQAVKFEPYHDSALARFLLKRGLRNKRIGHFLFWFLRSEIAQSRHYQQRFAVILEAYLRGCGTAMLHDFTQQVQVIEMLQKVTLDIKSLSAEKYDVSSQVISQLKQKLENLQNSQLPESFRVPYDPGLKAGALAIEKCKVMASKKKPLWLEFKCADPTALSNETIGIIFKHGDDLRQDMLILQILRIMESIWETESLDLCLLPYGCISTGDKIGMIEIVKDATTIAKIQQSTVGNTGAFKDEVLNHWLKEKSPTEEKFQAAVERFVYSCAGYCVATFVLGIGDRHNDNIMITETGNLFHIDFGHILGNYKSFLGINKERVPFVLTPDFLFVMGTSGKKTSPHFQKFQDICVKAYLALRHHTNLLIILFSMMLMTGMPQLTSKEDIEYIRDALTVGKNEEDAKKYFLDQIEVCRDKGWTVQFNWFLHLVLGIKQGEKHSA
For series [4], the target named is Phosphatidylinositol 4,5-bisphosphate 3-kinase catalytic subunit beta isoform (Homo sapiens, UniProt P42338). The experiment in a line: Inhibition of recombinant human PI3Kbeta using l-a-phosphatidylinositol sodium salt and l-a-phosphatidyl-L-serine as substrate incubated for 60 mins in presence of ATP by ADP-glo kinase assay.
Chain of Phosphatidylinositol 4,5-bisphosphate 3-kinase catalytic subunit beta isoform (P42338 whole entry, canonical isoform): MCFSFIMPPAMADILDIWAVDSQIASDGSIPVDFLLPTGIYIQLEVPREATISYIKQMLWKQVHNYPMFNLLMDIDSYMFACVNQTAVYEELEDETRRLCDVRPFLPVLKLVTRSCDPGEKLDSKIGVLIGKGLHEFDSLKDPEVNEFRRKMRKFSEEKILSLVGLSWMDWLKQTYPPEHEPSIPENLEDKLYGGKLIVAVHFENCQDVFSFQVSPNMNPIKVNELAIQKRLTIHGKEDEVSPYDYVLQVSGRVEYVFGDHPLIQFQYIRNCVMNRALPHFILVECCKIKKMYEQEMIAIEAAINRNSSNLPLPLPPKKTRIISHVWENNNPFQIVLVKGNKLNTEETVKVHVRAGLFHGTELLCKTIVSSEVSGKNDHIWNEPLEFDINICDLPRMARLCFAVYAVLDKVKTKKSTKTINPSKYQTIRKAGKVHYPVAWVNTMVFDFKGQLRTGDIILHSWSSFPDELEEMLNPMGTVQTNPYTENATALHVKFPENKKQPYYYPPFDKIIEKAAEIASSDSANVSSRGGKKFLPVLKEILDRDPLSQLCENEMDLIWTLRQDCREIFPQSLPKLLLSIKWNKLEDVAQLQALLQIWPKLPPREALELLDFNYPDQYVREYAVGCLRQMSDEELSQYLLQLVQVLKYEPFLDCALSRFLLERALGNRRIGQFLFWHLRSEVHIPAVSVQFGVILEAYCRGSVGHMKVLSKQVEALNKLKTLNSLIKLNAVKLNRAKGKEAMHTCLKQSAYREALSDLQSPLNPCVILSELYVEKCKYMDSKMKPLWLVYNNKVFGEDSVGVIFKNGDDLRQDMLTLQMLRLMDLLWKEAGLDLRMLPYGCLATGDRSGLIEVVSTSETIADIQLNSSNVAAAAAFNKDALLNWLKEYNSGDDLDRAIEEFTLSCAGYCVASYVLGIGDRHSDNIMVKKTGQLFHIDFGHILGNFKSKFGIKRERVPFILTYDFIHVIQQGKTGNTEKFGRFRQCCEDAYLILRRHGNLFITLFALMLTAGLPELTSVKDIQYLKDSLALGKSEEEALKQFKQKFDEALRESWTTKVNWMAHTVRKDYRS
The target in series [5] is Phosphatidylinositol 4,5-bisphosphate 3-kinase catalytic subunit alpha isoform (Homo sapiens, UniProt P42336). The series is described as follows: Inhibition of recombinant human PI3Kalpha using l-a-phosphatidylinositol sodium salt and l-a-phosphatidyl-L-serine as substrate incubated for 60 mins in presence of ATP by ADP-glo kinase assay.
Chain of Phosphatidylinositol 4,5-bisphosphate 3-kinase catalytic subunit alpha isoform (P42336 whole entry, canonical isoform): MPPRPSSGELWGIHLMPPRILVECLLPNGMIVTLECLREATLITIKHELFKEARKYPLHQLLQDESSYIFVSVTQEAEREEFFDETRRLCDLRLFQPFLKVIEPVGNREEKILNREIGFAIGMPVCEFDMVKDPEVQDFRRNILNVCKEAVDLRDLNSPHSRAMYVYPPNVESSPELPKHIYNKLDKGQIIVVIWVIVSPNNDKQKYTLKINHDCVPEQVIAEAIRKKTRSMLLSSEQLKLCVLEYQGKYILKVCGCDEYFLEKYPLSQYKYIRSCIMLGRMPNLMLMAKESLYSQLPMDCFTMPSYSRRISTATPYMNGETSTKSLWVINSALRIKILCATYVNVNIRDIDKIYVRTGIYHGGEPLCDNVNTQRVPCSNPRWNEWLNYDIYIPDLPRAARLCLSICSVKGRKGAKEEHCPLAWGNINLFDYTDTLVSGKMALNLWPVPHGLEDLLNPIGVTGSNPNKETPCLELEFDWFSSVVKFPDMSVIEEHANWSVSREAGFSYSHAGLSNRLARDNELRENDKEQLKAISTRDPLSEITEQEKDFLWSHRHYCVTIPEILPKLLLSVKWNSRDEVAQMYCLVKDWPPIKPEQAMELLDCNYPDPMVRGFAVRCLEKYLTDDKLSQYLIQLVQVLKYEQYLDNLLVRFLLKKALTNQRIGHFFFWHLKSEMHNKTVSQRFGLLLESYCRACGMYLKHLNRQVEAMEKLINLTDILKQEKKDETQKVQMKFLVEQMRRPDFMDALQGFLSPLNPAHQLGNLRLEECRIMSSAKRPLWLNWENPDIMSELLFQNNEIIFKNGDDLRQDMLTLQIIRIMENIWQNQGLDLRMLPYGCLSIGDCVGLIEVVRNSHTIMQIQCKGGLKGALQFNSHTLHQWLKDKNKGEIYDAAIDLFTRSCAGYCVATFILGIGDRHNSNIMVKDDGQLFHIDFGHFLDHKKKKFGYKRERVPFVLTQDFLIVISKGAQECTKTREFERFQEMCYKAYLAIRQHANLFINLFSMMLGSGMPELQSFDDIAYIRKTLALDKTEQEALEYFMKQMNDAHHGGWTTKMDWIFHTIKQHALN
Another series concerns THP-1. The conditions noted are these: Homo sapiens, time 70.0 min.
The test system of series [6] is HepG2. The series is described as follows: Cytotoxicity against human HepG2 cells assessed as reduction in cell viability at 10 to 30 uM incubated for 48 hrs by celltiter-glo assay. The note with it: dose 10-30 µM. The class given is functional, cell-based.
Series [7] can be described thus: Inhibition of PI3Kdelta/AKT pathway in M-CSF stimulated human THP-1 cells assessed as decrease in AKT phosphorylation preincubated for 60 mins followed by M-CSF stimulation and measured after 10 mins by HTRF analysis. The note with it: THP-1, read-out: pIC50 (converted). Background: In TR-FRET formats the signal depends on donor and acceptor labels being close together.

Series [8] can be described thus: Apparent permeability across basolateral side to apical side in human Caco-2 cells by […] assay. The class given is ADME, cell-based.
A short description of series [9]: Protein binding in rat plasma by rapidfire high-throughput MS analysis. The class given is ADME, cell-free. The conditions noted are these: read-out: PPB (converted).
Series [10] can be described thus: Protein binding in human plasma by rapidfire high-throughput MS analysis. The note with it: read-out: PPB (converted). The class given is ADME, cell-free.
A short description of series [11]: Protein binding in rat lung by rapidfire high-throughput MS analysis. The series is classed as ADME, tissue-based. The conditions noted are these: read-out: PB (converted).
A short description of series [12]: Microsomal stability in rat liver microsomes assessed as clearance at 0.5 uM incubated for 30 mins. The note with it: read-out: CLH. The series is classed as ADME, Microsome. (In general: Liver microsomes are a subcellular fraction often used to study metabolism.)
Series [13] is described as follows: Microsomal stability in human liver microsomes assessed as clearance at 0.5 uM incubated for 30 mins. The series is classed as ADME, Microsome. The conditions noted are these: read-out: CLH.
Series [14] can be described thus: Metabolic stability in rat hepatocytes assessed as clearance measured per 10^6 cells at 0.5 uM incubated for 180 mins. The class given is ADME, cell-based, Hepatocyte. The note with it: read-out: CLH.
A short description of series [15]: Metabolic stability in human hepatocytes assessed as clearance measured per 10^6 cells at 0.5 uM incubated for 180 mins. The class given is ADME, cell-based, Hepatocyte. The conditions noted are these: read-out: CLH.
Series [16] can be described thus: Metabolic stability in rat lung S9 fraction assessed as half life measured upto 120 mins in presence of NADPH by LC-MS/MS analysis. The class given is ADME, subcellular.
A short description of series [17]: Metabolic stability in human lung S9 fraction assessed as half life measured upto 120 mins in presence of NADPH by LC-MS/MS analysis. The series is classed as ADME, subcellular.
For series [18], the system named is HepG2. The series is described as follows: Cytotoxicity against human HepG2 cells assessed as reduction in cell viability at 3 to 30 uM incubated for 48 hrs by celltiter-glo assay. The class given is functional, cell-based. The note with it: dose 3-30 µM.

Turning to `CC(C)c1ccc(CCn2c(=O)[nH]c3c(C(N)=O)nc(-c4cccc(O)c4)nc32)cc1`, the Kinetic_solubility result in [1] was “Not Active”.

Regarding `CN(C)Cc1cccc(-c2nc(C(N)=O)c3[nH]c(=O)n(CCc4ccc(Cl)c(Cl)c4)c3n2)c1`, the Ki in series [2], in series [3], in series [4] and in series [5] was at least 20000 nM each time.

With `NC(=O)c1nc(-c2cccc(O)c2)nc2c1[nH]c(=O)n2CCc1ccc2c(c1)OCO2`, the Kinetic_solubility result in series [1] was “Not Active”.

Regarding `NC(=O)c1nc(-c2cccc(O)c2)nc2c1[nH]c(=O)n2CC1CCS(=O)(=O)C1` (stereo not given), the Ki – broadly, the equilibrium dissociation constant of an inhibitor or competing ligand from its target – was over 20000 nM in series [2], 1260 nM in [3], 631 nM in series [4] and 100 nM in [5].

With `NC(=O)c1nc(-c2cccc(O)c2)nc2c1[nH]c(=O)n2C1CC1c1ccccc1` (stereo not given), the Ki in series [2] is 63.1 nM; in series [3] it was 158 nM; in [4], 158 nM; in series [5], 158 nM. Moreover, the Kinetic_solubility result in series [1] is listed as “Not Active”. In addition, the pIC50 result in the series on THP-1 is “inactive”.

In the case of `NC(=O)c1nc(-c2cccc3[nH]ccc23)nc2c1[nH]c(=O)n2CCc1ccc(Cl)c(Cl)c1`, the Ki in series [5] was at least 20000 nM.

In the case of `NC(=O)c1nc(-c2cccc(O)c2)nc2c1[nH]c(=O)n2-c1ccc(N2CCOCC2)cc1`, the Ki in series [2] is 50.1 nM; in series [3], 126 nM; in [4] it was 158 nM; in [5], 39.8 nM.

For `CC[C@H](Nc1ncnc2[nH]cnc12)c1nc2cccc(F)c2c(=O)n1-c1ccccc1` [IDELALISIB], the outcome with HepG2 [6] was Active. In addition, in [7], the IC50 is 31.6 nM. The Papp B→A (usually how fast a substance crosses the layer from the basolateral side) in series [8] worked out at 23.4 ×10⁻⁶ cm/s. Also, the fraction unbound in series [9] was 0.148; in series [10] it was 0.031; in series [11], 0.139.

`NC(=O)c1nc(-c2cccc(O)c2)nc2c1[nH]c(=O)n2CCc1cccs1`: the solubility kinetic in series [1] amounted to 405 µM (≈ 154 µg/mL).

For the compound `NC(=O)c1nc(-c2cccc(O)c2)nc2c1[nH]c(=O)n2CCc1ccc(Cl)c(Cl)c1`, the solubility kinetic in series [1] was found to be 62 µM (≈ 27.5 µg/mL).

On to `NC(=O)c1nc(-c2cccc(O)c2)nc2c1[nH]c(=O)n2-c1ccc(F)cc1`, for which the inhibitory constant (Ki) in series [5] is 79.4 nM.

`Cc1ccc(O)cc1-c1nc(C(N)=O)c2[nH]c(=O)n(CCc3ccc(Cl)c(Cl)c3)c2n1`: the solubility kinetic in series [1] turned out to be 498 µM (≈ 228 µg/mL).

As for `CC(Cc1ccc(Cl)c(Cl)c1)n1c(=O)[nH]c2c(C(N)=O)nc(-c3cccc(O)c3)nc21` (stereo not given), the Ki in [2] was 3.16 nM; in [3], 398 nM; in series [4], 6.31 nM; in series [5] it was 200 nM. Moreover, the IC50 in series [7] was 100 nM. In [1], the solubility kinetic amounted to 414 µM (≈ 190 µg/mL). For the same compound, the microsomal CLint at 0.5 µM amounted to 50 µL/min/mg in series [12] and 19 µL/min/mg in series [13]. For the same compound, the hepatocyte CLint at 0.5 µM in [14] stood at 120 µL/min/1e6 cells; in series [15], 79 µL/min/1e6 cells. Also, the half-life in [16] and in series [17] was over 500 min in each case. Besides, the fraction unbound in series [9], in [10] and in series [11] was under 0.01 in each case. Besides, the result with HepG2 [18] was inactive.

For the compound `NC(=O)c1nc(-c2cccc3[nH]ncc23)nc2c1[nH]c(=O)n2CCc1ccc(Cl)c(Cl)c1`, the results for the Ki in series [2] and in [3] were 126 nM and 1580 nM, respectively.

On to `NC(=O)c1nc(-c2cccc(O)c2)nc2c1[nH]c(=O)n2C1CCN(Cc2ccccc2)C1` (stereo not given), for which the Ki in [2] was 5.01 nM; in series [3] it was 316 nM; in series [4] it was 20 nM; in series [5], 126 nM. The IC50 in series [7] was 316 nM. In [1], the solubility kinetic was found to be 178 µM (≈ 76.6 µg/mL). In addition, the microsomal CLint at 0.5 µM in series [12] was determined as 133 µL/min/mg; in series [13] it was 70 µL/min/mg. Moreover, the hepatocyte CLint at 0.5 µM was determined as 163 µL/min/1e6 cells in series [14] and 55 µL/min/1e6 cells in series [15]. Besides, the half-life (usually the time in which the quantity being followed falls by half) was over 500 min in [16] and 142 min in series [17]. For the same compound, the Papp B→A in [8] turned out to be 0.2 ×10⁻⁶ cm/s. The fraction unbound is 0.033 in series [9], 0.032 in series [10] and 0.021 in series [11]. Also, the result in the series with HepG2 [18] was inactive.

For `NC(=O)c1nc(-c2cccc(O)c2)nc2c1[nH]c(=O)n2CC1CCOC1` (stereo not given), the Ki was 39.8 nM in series [2], 251 nM in [3], 316 nM in series [4] and 39.8 nM in series [5].
